Measurements: ChEMBL document CHEMBL6092221, “Discovery of a Novel Macrocyclic Noncovalent CDK7 Inhibitor for Cancer Therapy” (J Med Chem, 2024)
In brackets after ≈: the same amount, converted by molar mass.

Columns and labels:
[1] = Metabolic stability in mouse liver microsomes assessed as intrinsic clearance; assay type: ADME, Microsome; conditions: read-out: CLH
[2] = AUC(0 to t) in mouse at 1 mg/kg, iv; assay type: ADME, organism-based; conditions: in vivo
[3] = AUC(0 to t) in rat at 1 mg/kg, iv; assay type: ADME, organism-based; conditions: in vivo
[4] = AUC(0 to t) in dog at 0.2 mg/kg, iv; assay type: ADME, organism-based, Canis lupus familiaris; conditions: in vivo
[5] = Cmax in rat at 5 mg/kg, po; assay type: ADME, organism-based; conditions: in vivo
[6] = biological target: Mitogen-activated protein kinase 7 (Homo sapiens, UniProt Q13164); assay: Inhibition of Erk5 (unknown origin)
Chain of Mitogen-activated protein kinase 7 (Q13164 whole entry): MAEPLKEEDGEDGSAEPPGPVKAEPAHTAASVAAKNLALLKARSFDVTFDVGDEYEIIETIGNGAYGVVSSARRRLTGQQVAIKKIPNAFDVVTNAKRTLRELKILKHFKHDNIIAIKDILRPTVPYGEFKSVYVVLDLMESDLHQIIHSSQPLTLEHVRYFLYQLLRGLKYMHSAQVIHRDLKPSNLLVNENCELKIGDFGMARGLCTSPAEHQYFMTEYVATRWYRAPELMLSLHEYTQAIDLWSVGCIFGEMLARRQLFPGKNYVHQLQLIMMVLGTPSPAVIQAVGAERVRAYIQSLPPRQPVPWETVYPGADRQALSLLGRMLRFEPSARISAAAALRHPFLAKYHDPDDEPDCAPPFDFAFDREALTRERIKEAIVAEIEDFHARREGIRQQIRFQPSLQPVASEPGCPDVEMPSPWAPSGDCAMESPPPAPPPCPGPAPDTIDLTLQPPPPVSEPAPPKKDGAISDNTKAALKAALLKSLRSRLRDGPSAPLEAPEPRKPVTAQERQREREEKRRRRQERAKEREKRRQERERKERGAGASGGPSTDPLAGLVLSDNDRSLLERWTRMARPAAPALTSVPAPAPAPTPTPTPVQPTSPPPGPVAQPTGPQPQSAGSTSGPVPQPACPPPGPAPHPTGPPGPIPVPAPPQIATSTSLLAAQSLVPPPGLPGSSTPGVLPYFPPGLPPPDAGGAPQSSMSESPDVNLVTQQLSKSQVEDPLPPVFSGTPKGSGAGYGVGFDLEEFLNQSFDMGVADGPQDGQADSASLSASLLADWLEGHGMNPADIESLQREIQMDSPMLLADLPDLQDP

[7] = biological target: CDK4/Cyclin D3 (Homo sapiens, UniProt P11802); assay: Inhibition of CDK4/Cyclin D3 (unknown origin); assay type: protein-complex assay
Chain of CDK4/Cyclin D3 (P11802 whole entry): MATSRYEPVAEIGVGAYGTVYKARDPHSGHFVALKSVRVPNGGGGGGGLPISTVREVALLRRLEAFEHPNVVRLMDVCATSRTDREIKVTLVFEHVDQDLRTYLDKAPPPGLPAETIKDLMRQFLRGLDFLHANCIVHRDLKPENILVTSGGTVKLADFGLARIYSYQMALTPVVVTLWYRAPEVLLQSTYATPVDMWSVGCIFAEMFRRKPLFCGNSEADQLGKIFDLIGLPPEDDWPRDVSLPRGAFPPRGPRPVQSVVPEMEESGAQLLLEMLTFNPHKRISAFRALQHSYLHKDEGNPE
Chain of CDK4/Cyclin D3 (P30281 whole entry, further chain): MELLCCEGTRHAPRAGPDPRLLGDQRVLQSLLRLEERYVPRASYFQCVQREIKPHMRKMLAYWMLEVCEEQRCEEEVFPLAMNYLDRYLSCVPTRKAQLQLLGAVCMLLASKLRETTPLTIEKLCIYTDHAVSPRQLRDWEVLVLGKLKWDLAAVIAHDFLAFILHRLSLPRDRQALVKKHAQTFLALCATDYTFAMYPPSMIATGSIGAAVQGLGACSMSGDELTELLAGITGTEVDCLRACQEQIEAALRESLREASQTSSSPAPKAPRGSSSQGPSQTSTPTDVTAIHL

[8] = Solubility of compound at pH 7.4; assay type: physicochemical; conditions: buffer
[9] = Metabolic stability in human liver microsomes assessed as intrinsic clearance; assay type: ADME, Microsome; conditions: read-out: CLH
[10] = Plasma stability in human assessed as half life; assay type: ADME, cell-free
[11] = biological target: Cytochrome P450 2C9 (Homo sapiens, UniProt P11712); assay: Inhibition of CYP2C9 (unknown origin); assay type: ADME
Chain of Cytochrome P450 2C9 (P11712 whole entry): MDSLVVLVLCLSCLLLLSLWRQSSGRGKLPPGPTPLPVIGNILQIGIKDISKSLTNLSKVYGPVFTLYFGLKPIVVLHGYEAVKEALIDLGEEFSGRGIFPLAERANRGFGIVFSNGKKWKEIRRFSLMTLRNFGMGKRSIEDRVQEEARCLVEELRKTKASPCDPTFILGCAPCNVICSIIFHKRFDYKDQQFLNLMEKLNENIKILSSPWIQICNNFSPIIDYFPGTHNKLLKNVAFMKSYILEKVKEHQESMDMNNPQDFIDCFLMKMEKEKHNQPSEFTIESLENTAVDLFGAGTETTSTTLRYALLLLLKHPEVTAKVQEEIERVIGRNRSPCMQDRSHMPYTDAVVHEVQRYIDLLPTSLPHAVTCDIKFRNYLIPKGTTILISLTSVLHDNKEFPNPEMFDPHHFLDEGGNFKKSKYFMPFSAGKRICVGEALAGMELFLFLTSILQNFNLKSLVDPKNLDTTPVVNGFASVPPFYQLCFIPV

[12] = Toxicity in female Balb/c nude mouse xenografted with human OVCAR-3 cells assessed as body weight loss at 2 to 20 mg/kg, po administered once daily and measured for 3 weeks; assay type: organism-based; conditions: in vivo, 504 h, dose 2-20 mg/kg
[13] = Half life in human OVCAR-3 cells xenografted in female Balb/c nude mouse plasma at 2 mg/kg, po administered once daily; assay type: ADME, organism-based
[14] = Cmax in human OVCAR-3 cells xenografted in female Balb/c nude mouse plasma at 5 mg/kg, po administered once daily; assay type: ADME, organism-based
[15] = Cmax in human OVCAR-3 cells xenografted in female Balb/c nude mouse plasma at 10 mg/kg, po administered once daily; assay type: ADME, organism-based
[16] = tested on: Mus musculus; assay: In vivo inhibition of CDK2 phosphorylation in human HCC70 cells xenografted in female Balb/c nude mouse administered once daily for 7 days; assay type: functional, organism-based; conditions: dose 2-10 mg/kg, time 7.0 day
[17] = tested on: HCC70; assay: Antitumor activity against human HCC70 cells xenografted in female nu/nu mouse assessed as tumor growth inhibition at 3 mg/kg, po administered once daily and measured for 4 weeks; assay type: functional; conditions: HCC70, 672 h, read-out: TGI
[18] = tested on: HCC70; assay: Antitumor activity against human HCC70 cells xenografted in female nu/nu mouse assessed as tumor growth inhibition at 10 mg/kg, po administered once daily and measured for 4 weeks; assay type: functional; conditions: HCC70, 672 h, read-out: TGI
[19] = Half life in human HCC70 cells xenografted in female nu/nu mouse plasma at 1 mg/kg, po administered once daily; assay type: ADME, organism-based
[20] = AUC(0 to t) in human HCC70 cells xenografted in female nu/nu mouse plasma at 1 mg/kg, po administered once daily; assay type: ADME, organism-based
[21] = biological target: Homeodomain-interacting protein kinase 4 (Homo sapiens) (UniProt Q8NE63); assay: Inhibition of HIPK4 (unknown origin) at 200 nM relative to control; values are per cent of control
Chain of Homeodomain-interacting protein kinase 4 (Homo sapiens) (Q8NE63 whole entry): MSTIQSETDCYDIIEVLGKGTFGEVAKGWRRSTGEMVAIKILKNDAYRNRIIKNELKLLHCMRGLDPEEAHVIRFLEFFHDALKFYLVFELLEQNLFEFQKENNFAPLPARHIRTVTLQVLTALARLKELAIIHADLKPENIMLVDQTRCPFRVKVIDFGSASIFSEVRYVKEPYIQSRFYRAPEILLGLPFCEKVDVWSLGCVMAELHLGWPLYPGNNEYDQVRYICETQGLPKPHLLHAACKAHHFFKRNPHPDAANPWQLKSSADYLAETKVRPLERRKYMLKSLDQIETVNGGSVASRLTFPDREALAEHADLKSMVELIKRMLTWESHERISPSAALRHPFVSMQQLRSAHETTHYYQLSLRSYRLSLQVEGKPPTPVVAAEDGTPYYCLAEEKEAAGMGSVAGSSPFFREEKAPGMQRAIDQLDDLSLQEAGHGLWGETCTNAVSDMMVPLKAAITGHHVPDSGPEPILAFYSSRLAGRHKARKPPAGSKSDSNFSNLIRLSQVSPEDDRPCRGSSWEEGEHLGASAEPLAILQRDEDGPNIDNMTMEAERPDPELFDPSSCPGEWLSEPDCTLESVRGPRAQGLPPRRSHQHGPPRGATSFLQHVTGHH

[22] = biological target: Cyclin-dependent kinase 4/cyclin D1 (Homo sapiens) (UniProt P11802+P24385); assay: Inhibition of CDK4/CyclinD1 (unknown origin) at 200 nM relative to control; values are per cent of control

CLint scaled [1]: 84.3 mL/min/kg
AUC(0-t) [2]: 315 ng·h/mL
AUC(0-t) [3]: 415 ng·h/mL
AUC(0-t) [4]: 3070 ng·h/mL
Cmax [5]: 165 ng/mL
IC50 [6]: 26.5 nM
IC50 [7]: 13.1 nM
solubility [8]: 917 µg/mL (≈ 1530 µM)
CLint scaled [9]: 19.6 mL/min/kg
half-life [10]: > 4.82 h
IC50 [11]: 41900 nM
half-life [13]: 1.7 h
Cmax [14]: 400 ng/mL
Cmax [15]: 580 ng/mL
residual activity [21]: 9.4%
residual activity [22]: 2.7%
SMILES: CN1CC(F)(F)CCN(C)[C@H]2CC[C@@H](C2)Nc2ncc(C(F)(F)F)c(n2)-c2c[nH]c3c(P(C)(C)=O)c(ccc23)C1=O
Activity [12]: Non-toxic
Activity [16]: Dose-dependent-effect
inhibition in vivo at 3 mg/kg [17]: 120%
inhibition in vivo at 10 mg/kg [18]: 175%
half-life [19]: 2 h
AUC(0-t) [20]: 84 ng·h/mL
